These results are taken from patent US20230416221A1, “DIHYDROISOQUINOLINONE AND ISOINDOLINONE DERIVATIVES AND USES THEREOF” (HEFEI INSTITUTES OF PHYSICAL SCIENCE, CHINESE ACADEMY OF …, priority 2020, published 2023).

Like-named read-outs stand apart in the source and are kept apart here. Some results are limits rather than exact numbers.

Assay [1] deals with MOLM13 drug resistant strain MOLM13 BR1. As to the kind of experiment: Growth of drug resistant strain MOLM13 BR1, Cell Titer-Glo GI50. It counts as cell-based. The conditions noted are these: Homo sapiens, MOLM-13, BAY1251152-resistant MOLM13 strain, 72 hours.
Assay [2] has as its system acute myeloid leukemia cell line MOLM13. The assay is described as follows: Growth of cancer cells, Cell Titer-Glo GI50, MOLM13. The note with it: incubated for 72 hours, Cell Titer-Glo. Type of assay: cell-based.
Assay [3] deals with human liver cancer cell line HepG2. As to the kind of experiment: Growth of cancer cells, Cell Titer-Glo GI50, HepG2. It counts as cell-based. The note with it: incubated for 72 hours.
For assay [4], the system named is HepG2 drug resistant strain HepG2 CDK9 KI C20-1. As to the kind of experiment: Growth of drug resistant strain HepG2 KI C20-1, Cell Titer-Glo GI50. Type of assay: cell-based, human. The conditions noted are these: for GI50 HepG2 CDK9 KI C20-1: CDK9 resistant mutation knockin HepG2 monoclone, 72 hours, Cell Titer-Glo.
Assay [5] deals with acute myeloid leukemia cell line MOLM14. As to the kind of experiment: Growth of cancer cells, Cell Titer-Glo GI50, MOLM14. It counts as cell-based. The note with it: incubated for 72 hours, Cell Titer-Glo, read-out: GI50 MOLM 14.
Assay [6] concerns acute myeloid leukemia cell line MV4-11. As to the kind of experiment: Growth of cancer cells, Cell Titer-Glo GI50, MV4-11. The conditions noted are these: read-out: GI50 MV4-11.
Assay [7] concerns human colorectal cancer cell HCT116. As to the kind of experiment: Growth of cancer cells, Cell Titer-Glo GI50, HCT116. It counts as cell-based.
In assay [8] the test system is human colorectal cancer cell DLD1. The assay is described as follows: Growth of cancer cells, Cell Titer-Glo GI50, DLD1. It counts as cell-based.
For assay [9], the system named is human chronic myeloid leukemia cell K562. As to the kind of experiment: Growth of cancer cells, Cell Titer-Glo GI50, K562. Type of assay: cell-based. The note with it: incubated for 72 hours, Cell Titer-Glo, read-out: GI50 K562.
In assay [10] the target is CDK9-L156F mut/CyclinT1 mutant protein (Homo sapiens (Human), UniProt P50750, L156F). As to the kind of experiment: Enzyme activity assay of CDK9 mutant protein inhibition in vitro, CDK9-L156F mut/CyclinT1.
Chain of CDK9-L156F mut/CyclinT1 mutant protein (P50750 whole entry L156F): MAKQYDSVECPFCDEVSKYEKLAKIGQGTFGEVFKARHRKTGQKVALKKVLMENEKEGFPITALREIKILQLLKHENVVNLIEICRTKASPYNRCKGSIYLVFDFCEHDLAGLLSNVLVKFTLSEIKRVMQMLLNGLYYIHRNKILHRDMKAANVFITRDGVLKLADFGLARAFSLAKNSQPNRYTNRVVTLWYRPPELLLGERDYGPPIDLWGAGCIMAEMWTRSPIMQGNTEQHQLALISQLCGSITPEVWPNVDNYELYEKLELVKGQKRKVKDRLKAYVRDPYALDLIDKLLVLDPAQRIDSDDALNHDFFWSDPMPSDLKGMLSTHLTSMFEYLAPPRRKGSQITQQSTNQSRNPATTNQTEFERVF
Chain of CDK9-L156F mut/CyclinT1 mutant protein (O60563 whole entry partner): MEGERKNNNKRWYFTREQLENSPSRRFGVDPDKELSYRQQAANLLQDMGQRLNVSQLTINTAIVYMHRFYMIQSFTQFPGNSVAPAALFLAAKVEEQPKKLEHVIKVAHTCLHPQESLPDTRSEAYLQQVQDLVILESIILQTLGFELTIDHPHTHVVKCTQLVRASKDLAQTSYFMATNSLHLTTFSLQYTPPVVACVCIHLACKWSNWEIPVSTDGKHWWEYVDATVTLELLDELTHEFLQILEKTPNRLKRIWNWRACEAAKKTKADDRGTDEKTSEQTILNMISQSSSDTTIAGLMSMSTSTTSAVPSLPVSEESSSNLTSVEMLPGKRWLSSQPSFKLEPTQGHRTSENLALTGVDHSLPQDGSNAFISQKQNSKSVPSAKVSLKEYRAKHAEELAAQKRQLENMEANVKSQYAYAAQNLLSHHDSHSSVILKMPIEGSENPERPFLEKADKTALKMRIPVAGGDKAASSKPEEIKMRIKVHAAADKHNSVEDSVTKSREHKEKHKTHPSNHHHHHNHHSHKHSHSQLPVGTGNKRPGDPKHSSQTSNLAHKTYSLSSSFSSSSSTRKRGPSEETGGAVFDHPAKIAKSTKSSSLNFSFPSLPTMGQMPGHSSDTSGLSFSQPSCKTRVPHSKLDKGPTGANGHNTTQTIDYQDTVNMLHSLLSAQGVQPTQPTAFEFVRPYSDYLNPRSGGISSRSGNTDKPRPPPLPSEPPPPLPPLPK
In assay [11] the test system is human ovarian granulosa tumor cell COV434. The assay is described as follows: Growth of cancer cells, Cell Titer-Glo GI50, COV434. Type of assay: cell-based. The note with it: read-out: GI50 COV434.
Assay [12] deals with histiocytic lymphoma U-937. As to the kind of experiment: Growth of cancer cells, Cell Titer-Glo GI50, U937. It counts as cell-based. The note with it: Homo sapiens, U-937; incubated for 72 hours, Cell Titer-Glo; read-out: GI50 U937.
In a further assay the target is CDK9/CyclinT1 protein (Homo sapiens (Human), UniProt P50750). As to the kind of experiment: Enzyme activity assay of CDK9 protein inhibition in vitro, CDK9/CyclinT1.
Chain of CDK9/CyclinT1 protein (P50750 whole entry): as the sequence (P50750 whole entry L156F) above, with F156L counted along it
Chain of CDK9/CyclinT1 protein (O60563 whole entry partner): as the sequence (O60563 whole entry partner) above
The target in a further assay is CDK9 (Homo sapiens (Human), UniProt P50750). The assay is described as follows: Binding activity of compound and CDK9, split luciferase system (C37-CL / CDK9-NL) in HEK-293T cells. It counts as cell-based. From the text:
The plasmid of split luciferase system was constructed by molecular cloning technology. The N-terminal domain (NLuc) and C-terminal domain (CLuc) of luciferase were respectively cloned and inserted into the vector PCDNA3 to construct NLuc-PCDNA3 and CLuc-PCDNA3 vectors, and the polyclonal sites were reserved at both ends of the sequence. Then CDC37 and CDK9 were cloned into the corresponding vectors to construct C37-CL and CDK9-NL vectors. C37-CL plasmid sequence is shown in SEQ ID NO. 1. CDK9-NL plasmid sequence is shown in SEQ ID NO. 2.
The mixed transfection complex was added to the 10 cm cell culture dish and cultured at 37° C. and 5% CO2 for 24 hours. […] After counting, the transfected cells were placed in a 96-well white Corning cell culture plate (purchased from Corning, U.S.) with 100 μL, 5000 cells/well. After 12 hours, the medium was removed from the 96-well plate and 100 μL culture medium containing corresponding concentration of the testing compound was added, which was cultured continuously for 12 hours. After 12 hours, 20 μL Luciferase-Glo (purchased from Promega, U.S.) testing reagent was added to each well. After mixing, the […] value was detected using a microplate reader.

In assay [13] the test system is acute myeloid leukemia cell line OCI-AML-3. As to the kind of experiment: Growth of cancer cells, Cell Titer-Glo GI50, OCI-AML-3. The conditions noted are these: Homo sapiens; incubated for 72 hours, Cell Titer-Glo; read-out: GI50 AML3. It counts as cell-based.
Assay [14] has as its system cervical cancer cell HeLa. As to the kind of experiment: cells. The note with it: Homo sapiens, 72 h, read-out: GI50 HeLa.
Assay [15] has as its system gastrointestinal stromal tumor GIST-T1. The assay is described as follows: cells. The note with it: Homo sapiens, GISTT1, 72 h, read-out: GI50 GIST-T1.
The subject of assay [16] is lymphoma cell WSU-DLCL2. The assay is described as follows: cells. The note with it: Homo sapiens, WSUDLCL2, 72 h, read-out: GI50 WSU-DLCL2.
Assay [17] deals with gastrointestinal stromal tumor GIST-T1. The note with it: read-out: GI50 GIST-T1; incubated for 72 hours, Cell Titer-Glo.
The test system of assay [18] is cervical cancer cell HeLa. The note with it: read-out: GI50 HeLa; incubated for 72 hours, Cell Titer-Glo.
Assay [19] relates to lymphoma cell WSU-DLCL2. The note with it: read-out: GI50 WSU-DLCL2; incubated for 72 hours, Cell Titer-Glo.
[20] abbreviates: Homo sapiens, MOLM-13, Table 2, read-out: GI50 MOLM13.
Setting [21] is: Homo sapiens, HCT-116, incubated for 72 hours.
[22] abbreviates: Homo sapiens, DLD-1, incubated for 72 hours.
The mark [23] stands for this setting: Homo sapiens, MOLM-13, Table 1, read-out: GI50 MOLM 13.
The mark [24] stands for this setting: incubated for 72 hours, Cell Titer-Glo.

Chain of CDK9 (P50750 whole entry, the tested form may be a part): as the sequence (P50750 whole entry L156F) above, with F156L counted along it

On to `COc1cc(F)ccc1-c1cc(Nc2cc(CS(C)(=N)=O)ccn2)ncc1F` (stereo not shown) [BAY1251152, reference compound], for which the GI50 in [1] is 1190 nM; in [2] (setting [20]), 38 nM; in assay [3] (Table 3), 36.1 nM; in assay [5] (Homo sapiens, MOLM-14) it was 40 nM; in assay [6] (Homo sapiens, MV4-11, 72 h), 27 nM. The “GI50 HepG2 CDK9 KI C20-1” value in assay [4] was more than 1000 nM. The “drug resistance on the drug resistant strain of liver cancer cell HepG2” value in assay [4] (result in words) is reported as “obvious drug resistance”.

Take `COCCNC1CCC(Nc2nccc(-c3ccc4c(c3)C(C(C)C)(C(C)C)CNC4=O)n2)CC1` (stereo not shown) [Compound 14, 4,4-diisopropyl-6-(2-(((1r,4r)-4-((2-methoxyethyl)amino)cyclohexyl)amino)pyrimidin-4-yl)-3,4-dihydroisoquinolin-1(2H)-one]: the GI50 in assay [1] was 8.26 nM; in [2] (setting [20]), 7.08 nM; in assay [3] (Table 1) it was 23 nM; in assay [7] (setting [21]) it was 12 nM; in assay [8] (setting [22]), 63 nM; in assay [9] (Homo sapiens, K562), 26 nM. Also, the concentration for 50% growth inhibition (GI50) in assay [6] (Homo sapiens, MV4-11, 72 h) came out at 17 nM.

`COCCN[C@H]1CC[C@H](Nc2nccc(-c3ccc4c(c3)C(C(C)C)(C(C)C)CNC4=O)n2)CC1` [Compound 14, 4,4-diisopropyl-6-(2-(((1r,4r)-4-((2-methoxyethyl)amino)cyclohexyl)amino)pyrimidin-4-yl)-3,4-dihydroisoquinolin-1(2H)-one]: the IC50 in assay [10] worked out at 98.6 nM.

Turning to `CC1(C)CNC(=O)c2ccc(-c3ccnc(Nc4ccc(F)c(NS(C)(=O)=O)c4)n3)cc21` [Compound 34, N-(5-((4-(4,4-dimethyl-1-oxo-1,2,3,4-tetrahydroisoquinolin-6-yl)pyrimidin-2-yl)amino)-2-fluorophenyl)methanesulfamide], the GI50 is 9 nM in [11] (Homo sapiens, COV434, 72 h); 11 nM in assay [2] (setting [23]); 7 nM in assay [12]; 24 nM in [9] (Homo sapiens, K562); 8 nM in [13]; 4 nM in [6] (Homo sapiens, MV4-11, 72 h). Further, the IC50 was 6.1 nM against CDK9/CyclinT1 protein and 50 nM at CDK9.

For the molecule `CC1(C)CNC(=O)c2ccc(-c3ccnc(Nc4cccc(N5CCCNCC5)c4)n3)cc21` [Compound 35, 6-(2-((3-(1,4-homopiperazin-1-yl)phenyl)amino)pyrimidin-4-yl)-4,4-dimethyl-3,4-dihydroisoquinolin-1(2H)-one], the 50% growth inhibitory concentration (GI50) was 1.69 nM in assay [1]; less than 1 nM in [11] (Homo sapiens, COV434, 72 h); less than 1 nM in assay [2] (setting [23]); 87.4 nM in assay [3] (Table 3); 23 nM in [12]; 25 nM in assay [9] (Homo sapiens, K562). The 50% growth inhibitory concentration (GI50) in [13] was 33 nM; in [6] (Homo sapiens, MV4-11, 72 h), less than 1 nM. Further, in assay [4], the “GI50 HepG2 CDK9 KI C20-1” value is 138.5 nM. In addition, the IC50 at CDK9 came to 300 nM.

`CN1CCN(c2cccc(Nc3nccc(-c4ccc5c(c4)C(C)(C)CNC5=O)n3)c2)CC1` [Compound 37, 4,4-dimethyl-6-(2-((3-(4-methylpiperazin-1-yl)phenyl)amino)pyrimidin-4-yl)-3,4-dihydroisoquinolin-1(2H)-one]: the concentration for 50% growth inhibition (GI50) in assay [1] is 3.05 nM; in [2] (setting [23]), less than 1 nM; in [3] (Table 3), 27.8 nM; in assay [5] (Homo sapiens, MOLM-14), less than 1 nM; in assay [9] (Homo sapiens, K562), 31 nM; in [6] (Homo sapiens, MV4-11, 72 h) it was less than 1 nM. For the same molecule, the “GI50 HepG2 CDK9 KI C20-1” value in assay [4] was 74.8 nM. The IC50 at CDK9 is 49 nM.

For `CN1CCN(c2ccc(Nc3nccc(-c4ccc5c(c4)C(C)(C)CNC5=O)n3)cc2)CC1` [Compound 40, 4,4-dimethyl-6-(2-((4-(4-methylpiperazin-1-yl)phenyl)amino)pyrimidin-4-yl)-3,4-dihydroisoquinolin-1(2H)-one], the GI50 in assay [1] came out at 4.39 nM; in [2] (setting [23]), 3 nM; in assay [12], 4.6 nM; in assay [5] (Homo sapiens, MOLM-14), 5.8 nM; in assay [9] (Homo sapiens, K562) it was 25 nM; in assay [13] it was 5 nM. Further, in assay [6] (Homo sapiens, MV4-11, 72 h), the concentration for 50% growth inhibition (GI50) came to 1.7 nM. The values for the IC50 at CDK9/CyclinT1 protein and at CDK9 were 6.6 nM and 67 nM, respectively.

`CN1CCC(NC(=O)c2cc(Nc3nccc(-c4ccc5c(c4)C(C)(C)CNC5=O)n3)ccc2F)CC1` [Compound 41]: the 50% growth inhibitory concentration (GI50) in assay [2] (setting [23]) is 11 nM; in assay [12], 13 nM; in assay [5] (Homo sapiens, MOLM-14), 25 nM; in [9] (Homo sapiens, K562), 84 nM; in assay [13] it was 23 nM; in assay [6] (Homo sapiens, MV4-11, 72 h) it was 6.6 nM. The IC50 against CDK9/CyclinT1 protein was found to be 2.5 nM; on CDK9, 114 nM.

On to `Cc1ccc(Nc2nccc(-c3ccc4c(c3)C(C)(C)CNC4=O)n2)cc1N1CCN(C)CC1` [Compound 82, 4,4-methyl-6-(2-((4-methyl-3-(4-methylpiperazin-1-yl)phenyl)amino)pyrimidin-4-yl)-dihydroisoquinolin-1(2H)-one], for which the GI50 was 1.71 nM in [1]; less than 1 nM in assay [2] (setting [23]); 0.845 nM in [2] (setting [20]); 0.8 nM in assay [5] (Homo sapiens, MOLM-14); 26 nM in [9] (Homo sapiens, K562). For the same molecule, the IC50 came out at 105 nM in assay [10] and 2.6 nM against CDK9/CyclinT1 protein.

Consider `CCc1cnn2c(NCc3ccc[n+]([O-])c3)cc(N3CCCC[C@H]3CCO)nc12` [Dinaciclib, reference compound], for which the GI50 in [11] (Homo sapiens, COV434, 72 h) amounted to 8 nM; in assay [2] (setting [23]), 11 nM; in [7] (setting [21]) it was 15 nM; in assay [14], 16.5 nM; in [12], 5 nM; in assay [8] (setting [22]), 30 nM. Further, the GI50 was found to be 18 nM in assay [5] (Homo sapiens, MOLM-14); 15 nM in assay [15]; 53 nM in [9] (Homo sapiens, K562); 4 nM in assay [13]; 13 nM in the assay on lymphoma cell WSU-DLCL2 [16]; 22 nM in assay [6] (Homo sapiens, MV4-11, 72 h).

On to `COC[C@@H](C)NC1CCC(Nc2cc(-c3csc(NCC4(C#N)CCOCC4)n3)c(Cl)cn2)CC1` (stereo partly shown) [JSH-009, reference compound], for which the GI50 in assay [11] (setting [24]) amounted to 30 nM; in assay [2] (Table 1, read-out: GI50 MOLM 13) it was 4 nM; in assay [7] (incubated for 72 hours), 23 nM; in assay [8] (incubated for 72 hours) it was 106 nM; in assay [17], 34 nM; in assay [18], 18 nM. Further, the GI50 was found to be 4 nM in assay [5], 16 nM in the assay on lymphoma cell WSU-DLCL2 [19], 9 nM in assay [9] and 6 nM in [6] (setting [24]). Moreover, the IC50 on CDK9/CyclinT1 protein (read-out: CDK9/CyclinT1 Protein activity (IC50)) came to 29 nM.
